Results published in ChEMBL document CHEMBL2021794, “Synthesis, σ₁, σ₂-receptors binding affinity and antiproliferative action of new C1-substituted adamantanes” (Bioorg Med Chem, 2012).
Calls of active or inactive are those of the source. The rule behind the calls is not given here.

What was measured:
[1] = tested on: PC-3; assay: Induction of apoptosis in human PC3 cells assessed as healthy cells at 0.5 uM after 24 hrs by Annexin V/7-AAD staining based flow cytometry (reference value: 92%); assay type: functional
[2] = tested on: PC-3; assay: Induction of apoptosis in human PC3 cells assessed as healthy cells at 50 uM after 24 hrs by Annexin V/7-AAD staining based flow cytometry (reference value: 92%); assay type: functional
[3] = tested on: Mus musculus; assay: Analgesic activity against formalin-induced neuropathic pain in paclitaxel treated CD1 mouse assessed as decrease of time spent in paw licking at 100 mg/kg, po administered 14 days post paclitaxel dosing and 1 hr prior formalin challenge measured for 0 to 5 mins post formalin challenge; assay type: functional, organism-based; set-up: dose 100 mg/kg
[4] = tested on: IGROV-1; assay: Induction of apoptosis in human IGROV1 cells assessed as cleaved caspase-3 containing cells at 15 uM after 24 hrs by FACS analysis (reference value: 4%); assay type: functional
[5] = tested on: BXPC-3; assay: Cell cycle arrest in human BxPC3 cells assessed as accumulation at G1 phase at 50 uM after 24 hrs by propidium iodide staining based flow cytometry (reference value: 41%); assay type: functional
[6] = tested on: U-251; assay: Growth inhibition of human U251 cells after 48 hrs by SRB assay; assay type: functional; conditions: U-251, 48 h
[7] = tested on: DMS-114; assay: Growth inhibition of human DMS114 cells after 48 hrs by SRB assay; assay type: functional; conditions: DMS-114, 48 h
[8] = tested on: BXPC-3; assay: Cell cycle arrest in human BxPC3 cells assessed as accumulation at S phase at 5 uM after 24 hrs by propidium iodide staining based flow cytometry (reference value: 33%); assay type: functional
[9] = tested on: PC-3; assay: Cell cycle arrest in human PC3 cells assessed as accumulation at < G1 phase at 50 uM after 24 hrs by propidium iodide staining based flow cytometry (reference value: 4%); assay type: functional
[10] = tested on: MCF7; assay: Cytotoxicity against human MCF7 cells after 48 hrs by trypan blue assay; assay type: functional, cell-based
[11] = tested on: PC-3; assay: Cell cycle arrest in human PC3 cells assessed as accumulation at S phase at 0.5 uM after 24 hrs by propidium iodide staining based flow cytometry (reference value: 42%); assay type: functional
[12] = tested on: IGROV-1; assay: Induction of apoptosis in human IGROV1 cells assessed as cleaved caspase-3 containing cells at 5 uM after 24 hrs by FACS analysis (reference value: 4%); assay type: functional
[13] = Selectivity ratio of IC50 for human sigma-1 receptor to IC50 for rat sigma-2 receptor
[14] = tested on: BXPC-3; assay: Cell cycle arrest in human BxPC3 cells assessed as accumulation at S phase at 15 uM after 24 hrs by propidium iodide staining based flow cytometry (reference value: 33%); assay type: functional
[15] = tested on: BXPC-3; assay: Induction of apoptosis in human BxPC3 cells assessed as healthy cells at 15 uM after 24 hrs by Annexin V/7-AAD staining based flow cytometry (reference value: 77%); assay type: functional
[16] = tested on: OVCAR-5; assay: Cytotoxicity against human OVCAR5 cells after 48 hrs by trypan blue assay; assay type: functional, cell-based
[17] = tested on: SK-HEP1; assay: Growth inhibition of human SKHEP1 cells after 48 hrs by SRB assay; assay type: functional; conditions: SK-HEP1, 48 h
[18] = tested on: SF-295; assay: Cytotoxicity against human SF295 cells after 48 hrs by trypan blue assay; assay type: functional, cell-based
[19] = tested on: U-251; assay: Cytotoxicity against human U251 cells after 48 hrs by trypan blue assay; assay type: functional, cell-based
[20] = tested on: BXPC-3; assay: Cell cycle arrest in human BxPC3 cells assessed as accumulation at < G1 phase at 0.5 uM after 24 hrs by propidium iodide staining based flow cytometry (reference value: 9%); assay type: functional
[21] = tested on: HCT-15; assay: Cytotoxicity against human HCT15 cells after 48 hrs by trypan blue assay; assay type: functional, cell-based
[22] = tested on: PC-3; assay: Induction of apoptosis in human PC3 cells assessed as cleaved caspase-3 containing cells at 5 uM after 24 hrs by FACS analysis (reference value: 3%); assay type: functional
[23] = tested on: MCF7; assay: Growth inhibition of human MCF7 cells after 48 hrs by SRB assay; assay type: functional; conditions: MCF7, 48 h
[24] = tested on: LOX IMVI; assay: Growth inhibition of human LOXIMVI cells after 48 hrs by SRB assay; assay type: functional
[25] = tested on: IGROV-1; assay: Induction of apoptosis in human IGROV1 cells assessed as healthy cells at 15 uM after 24 hrs by Annexin V/7-AAD staining based flow cytometry (reference value: 86%); assay type: functional
[26] = tested on: BXPC-3; assay: Induction of apoptosis in human BxPC3 cells assessed as late apoptotic cells at 15 uM after 24 hrs by Annexin V/7-AAD staining based flow cytometry (reference value: 9%); assay type: functional
[27] = tested on: IGROV-1; assay: Cytotoxicity against human IGROV1 cells at 50 uM; assay type: functional, cell-based
[28] = tested on: IGROV-1; assay: Cell cycle arrest in human IGROV1 cells assessed as accumulation at < G1 phase at 15 uM after 24 hrs by propidium iodide staining based flow cytometry (reference value: 4%); assay type: functional
[29] = Growth inhibition of human MSC cells after 48 hrs by SRB assay; assay type: cell-based
[30] = tested on: IGROV-1; assay: Induction of apoptosis in human IGROV1 cells assessed as cleaved caspase-3 containing cells at 0.5 uM after 24 hrs by FACS analysis (reference value: 4%); assay type: functional
[31] = tested on: PC-3; assay: Induction of apoptosis in human PC3 cells assessed as cleaved caspase-3 containing cells at 0.5 uM after 24 hrs by FACS analysis (reference value: 3%); assay type: functional
[32] = tested on: IGROV-1; assay: Cell cycle arrest in human IGROV1 cells assessed as accumulation at S phase at 0.5 uM after 24 hrs by propidium iodide staining based flow cytometry (reference value: 29%); assay type: functional
[33] = tested on: NCI-H460; assay: Growth inhibition of human NCI-H460 cells after 48 hrs by SRB assay; assay type: functional; conditions: NCI-H460, 48 h
[34] = tested on: PC-3; assay: Cell cycle arrest in human PC3 cells assessed as accumulation at G1 phase at 15 uM after 24 hrs by propidium iodide staining based flow cytometry (reference value: 36%); assay type: functional
[35] = tested on: HCT-15; assay: Growth inhibition of human HCT15 cells after 48 hrs by SRB assay; assay type: functional; conditions: HCT-15, 48 h
[36] = (§1) Growth inhibition of HUVEC cells after 48 hrs by SRB assay; assay type: cell-based; conditions: human, HUVEC cells
[37] = tested on: HUVEC; assay: as §1; assay type: cell-based; conditions: human, huvec, 48 h
[38] = tested on: BXPC-3; assay: Antitumor activity against human BxPC3 cells xenografted in SCID mouse assessed as tumor weight at 40 mg/kg, ip for 5 consecutive days and 2 administrations for one more week (reference value: 723 +/- 45 mg); assay type: functional; conditions: route intraperitoneal
[39] = tested on: PC-3; assay: Induction of apoptosis in human PC3 cells assessed as early apoptotic cells at 5 uM after 24 hrs by Annexin V/7-AAD staining based flow cytometry (reference value: 5%); assay type: functional
[40] = tested on: PC-3; assay: Cell cycle arrest in human PC3 cells assessed as accumulation at G2 phase at 0.5 uM after 24 hrs by propidium iodide staining based flow cytometry (reference value: 13%); assay type: functional
[41] = read-out: LC50 (the source's name)

CN1CCN(c2ccc(C(c3ccccc3)C34CC5CC(CC(C5)C3)C4)cc2)CC1 (configuration not stated)
Activity [1]: 95% | Activity [2]: 61% | Activity [3]: Active | Activity [4]: 30% | Activity [5]: 33% | GI50 [6]: 4 µM | TGI [6]: 6.57 µM | CC50 [6, 41]: 9.14 µM | GI50 [7]: 5.43 µM | TGI [7]: 9.17 µM | CC50 [7, 41]: 100 µM | Activity [8]: 30% | Activity [9]: 10% | Activity [10]: Active | Activity [11]: 40% | Activity [12]: 7% | Ratio IC50 [13]: 11.8 | Activity [14]: 19% | Activity [15]: 60% | Activity [16]: Active | GI50 [17]: 6.05 µM | TGI [17]: 28.4 µM | CC50 [17, 41]: 77.6 µM | Activity [18]: Active | Activity [19]: Active | Activity [20]: 11% | Activity [21]: Active | Activity [22]: 2% | GI50 [23]: 11.6 µM | TGI [23]: 16.9 µM | CC50 [23, 41]: 3.17 µM | GI50 [24]: 3.36 µM | LC50 (concentration killing 50% of cells) [24]: 8.41 µM | TGI [24]: 5.88 µM | Activity [25]: 62% | Activity [26]: 16% | Activity [27]: Active | Activity [28]: 11% | GI50 at 48 h ([29]; MSC cells): 16.9 µM | LC50 ([29]; msc, 48 h): 91.56 µM | TGI ([29]; msc, 48 h): 54.21 µM | Activity [30]: 5% | Activity [31]: 1% | Activity [32]: 28% | GI50 [33]: 4.41 µM | LC50 (concentration killing 50% of cells) [33]: 100 µM | TGI [33]: 7.66 µM | Activity [34]: 49% | GI50 [35]: 5.54 µM | LC50 [35]: 100 µM | TGI [35]: 12.8 µM | GI50 at 48 h [36]: 4.52 µM | LC50 [37]: 10.34 µM | TGI [37]: 7.43 µM | Activity [38]: 690 mg | Activity [39]: 5% | Activity [40]: 14%
